Test results as given in patent publication US6818640B1, “2-imino-1,3-thiazine derivatives” (Shionogi & Co., Ltd., priority 1999, dated 2004).
Read-outs that look alike come from different tables or passages of the source.

What was measured:
[1] = target: T1, human CB2R (Homo sapiens, UniProt P34972); assay: Human CB2 receptor (CB2R) binding inhibition, [3H]CP55940, membranes of CB2R-expressing CHO cells
T1 construct: The coding region of human CB2R cDNA; expressed in transfected cells
Experimental: The prepared vector was transfected into Chinese Hamster Ovary (CHO) cells with LipofectAMINE reagent (Gibco BRL) according to the manufacture's protocol, and the stable CB2R-expressing clones were selected.
(§1) The crude membrane fractions were then prepared from the CB2R-expressing CHO cells. Receptor binding assay was performed by incubating the membranes with each test compound and [^3H]CP55940 (at a final concentration of 0.5 nM: NEN Life Science Products) in the assay buffer (50 mM Tris-HCl, 1 mM EDTA, 3 mM MgCl2, pH 7.4) containing 0.5% bovine serum albumin (BSA) for 2 hr at 25° C. The incubation mixture was filtered through 1% polyethylenimine (PEI)-treated GF/C glass filter and washed with 50 mM Tris-HCl (pH 7.4) containing 0.1% BSA. The radioactivity was then counted with a liquid scintillation counter.
(§2) For the receptor binding assay of human CB1 receptor (CB1R), the stable CB1R-expressing CHO cells were prepared as described above, and the binding assay was performed with their membrane fractions. As a consequence of these studies, the Ki values of each test compound for both cannabinoid receptors were determined, which were presented in Table 89.

[2] = target: T2, human CB1 receptor (CB1R) (Homo sapiens, UniProt P21554); assay: Receptor binding assay of human CB1 receptor (CB1R), membranes of CB1R-expressing CHO cells
T2 construct: expressed in transfected cells
Experimental: as §1, §2

[3] = target: T1, human CB2R; assay: CB2R-mediated suppression of forskolin-stimulated cAMP synthesis (agonistic activity), CHO cells expressing human CB2R; type: cell-based
Experimental: After the incubation, 4 μM forskolin (Sigma) was added and the cells were incubated for 20 min at 37° C. The reaction was stopped by the addition of 1N HCl and the amount of cAMP in the cell supernatant was measured using an EIA kit (Amersham Pharmacia Biotech) according to the manufacture's protocol.

[4] = test system: SRBC-induced DTH reaction; assay: Sheep red blood cell (SRBC)-induced delayed type hypersensitive (DTH) reaction, foot pad swelling; type: in vivo; conditions: female ddY mice, measured after 24 hrs
Experimental: Female ddY mice (7 weeks old) were used for the sheep red blood cell (SRBC)-induced delayed type hypersensitive (DTH) reaction.
Cannabinoid receptor agonist, I-6, I-60, I-77 and I-118 were suspended in 0.6% arabic gum solution. Mice were sensitized by the intradermal injection of 10^7 cells of SRBC (40 μl/foot) into the left hind foot pad. After 5 days, DTH reaction was induced by the intradermal injection of 10^8 cells of SRBC in the right hind foot pad. Test compounds were administerd p.o. (10 ml/kg) 1 hr before and 5 hr after the induction of DTH reaction. After 24 hrs of the injection of SRBC, the left and right foot pad volumes were measured by the water displacement method. The foot pad swelling was calculated as the differences in the volumes between the right and left hind foot pad, and used as an index of the DTH reaction.
Data are expressed as the inhibition percentage of each compound. Statistical analysis was performed with Welch's t-test, in which the value of P<0.05 is considered as a significant difference.

[5] = dose 30 mg/kg p.o. 1 hr before and 5 hr after induction

T1 sequence (P34972 whole entry): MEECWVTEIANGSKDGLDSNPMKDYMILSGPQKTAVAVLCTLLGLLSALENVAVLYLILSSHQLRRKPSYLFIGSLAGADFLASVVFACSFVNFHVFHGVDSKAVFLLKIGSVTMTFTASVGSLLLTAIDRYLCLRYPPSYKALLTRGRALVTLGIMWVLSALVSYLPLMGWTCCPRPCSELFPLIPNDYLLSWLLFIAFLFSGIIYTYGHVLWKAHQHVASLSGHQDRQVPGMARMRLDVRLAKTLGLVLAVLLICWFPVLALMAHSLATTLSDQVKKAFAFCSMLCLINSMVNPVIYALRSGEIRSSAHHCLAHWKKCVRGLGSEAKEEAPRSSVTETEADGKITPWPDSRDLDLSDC
T2 sequence (P21554 whole entry): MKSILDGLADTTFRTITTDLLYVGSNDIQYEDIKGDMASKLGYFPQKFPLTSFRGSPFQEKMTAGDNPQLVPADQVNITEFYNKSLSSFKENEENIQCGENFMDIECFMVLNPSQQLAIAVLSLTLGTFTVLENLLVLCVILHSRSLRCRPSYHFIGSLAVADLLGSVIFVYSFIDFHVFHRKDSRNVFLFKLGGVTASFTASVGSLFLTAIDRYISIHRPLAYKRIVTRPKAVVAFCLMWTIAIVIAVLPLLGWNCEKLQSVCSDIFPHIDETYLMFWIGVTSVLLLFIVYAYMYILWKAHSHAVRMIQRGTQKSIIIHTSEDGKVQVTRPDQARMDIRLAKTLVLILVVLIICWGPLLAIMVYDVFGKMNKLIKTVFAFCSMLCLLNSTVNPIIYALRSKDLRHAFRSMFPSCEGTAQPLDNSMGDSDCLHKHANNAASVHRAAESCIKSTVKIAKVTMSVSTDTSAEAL

SMILES | Ki [1] [nM] | Ki [2] [nM] | also measured
CCOc1ccc(/N=C2\SCC(C)(C)CN2C(=O)OC)cc1OCC | – | – | melting point: 75 to 76 °C
CCOC(=O)N1CC(C)(C)CSC1=Nc1ccccc1C(C)C | – | – | melting point: 84 to 86 °C
CSC(=S)N1CC(C)(C)CSC1=Nc1ccccc1C(C)C [Compound I-5, 2-(2-isopropylphenyl)imino-3-(methylthio)thiocarbonyl-5,5-dimethyl-1,3-thiazine] | 61 | > 5000 | melting point: 77 to 79 °C; IC50 [3]: 6.5 nM
CCSC(=O)N1CCSC1=Nc1ccccc1C(C)C [Compound I-6, 3-(ethylthiocarbonyl)-2-(2-isopropylphenyl)imino-1,3-thiazolidine] | 9 | – | melting point: 79 to 81 °C; IC50 ([3]; CHO cells expressing human CB2R, 4 μM forskolin, read-out: IC50 (inhibition of forskolin-stimulated cAMP synthesis)): 2.7 nM; Inhibition percentage (foot pad swelling, DTH reaction) ([4]; dose 40 mg/kg p.o. 1 hr before and 5 hr after induction): 45.2%
CCSC(=O)N1CC(C)(C)CSC1=Nc1ccccc1C(C)CC (stereo not drawn) [Compound I-23] | 29 | > 5000 | IC50 [3]: 2.6 nM
CSC(=O)N1CC(C)(C)CSC1=Nc1ccccc1C(C)C [Compound I-50] | 39 | > 5000 | –
CCC(C)c1ccccc1N=C1SCC(C)(C)CN1C(=O)SC (stereo not drawn) [Compound I-51] | 23 | – | IC50 [3]: 2.8 nM
CSC(=O)N1CC(C)(C)CSC1=Nc1cccc(C(C)C)c1 [Compound I-52] | 35 | – | –
CCc1ccccc1N=C1SCC(C)(C)CN1C(=S)SC [Compound I-56] | 54 | – | –
CCC(C)c1ccccc1N=C1SCC(C)(C)CN1C(=S)SC (stereo not drawn) [Compound I-57] | 6 | 4130 | IC50 [3]: 5.5 nM
COc1ccccc1N=C1SCC(C)(C)CN1C(=S)SC [Compound I-60] | 18 | 2100 | Inhibition percentage (foot pad swelling, DTH reaction) [4, 5]: 31.1%
CSC(=S)N1CC(C)(C)CSC1=Nc1ccccc1SC [Compound I-62] | 44 | – | –
CSC(=S)N1CC(C)(C)CSC1=Nc1cccc(C(C)C)c1 [Compound I-69] | 33 | – | –
CSC(=S)N1CC(C)(C)CSC1=Nc1ccc(C)c(C)c1 [Compound I-74] | 48 | – | –
COc1ccc(N=C2SCC(C)(C)CN2C(=S)SC)cc1OC [Compound I-77] | 53 | – | Inhibition percentage (foot pad swelling, DTH reaction) [4, 5]: 33.8%
CCSC(=S)N1CC(C)(C)CSC1=Nc1ccccc1C(C)C [Compound I-84] | 35 | > 5000 | –
CCSC(=S)N1CC(C)(C)CSC1=Nc1ccccc1C(C)CC (stereo not drawn) [Compound I-85] | 25 | – | –
